# In patent US11591322B2, “Certain chemical compositions and methods of use thereof” (Algen Biotechnologies, Inc., priority 2020, dated 2023):
# Legend:
# CDK9/CyclinT = CDK9/CyclinT (Homo sapiens (Human), UniProt P50750); test: CDK9 biochemical assay (Kinase-Glo Max luminescence); settings: 30° C. for 45 minutes
# Experimental: To each well of a 96-well plate was added 5× kinase assay buffer with 10 mM DTT (6 μL), 500 μM ATP (1 μL), 5×CDK substrate (10 μL), and water (8 μL). 5 μL of compound were added to the test and positive control groups, while 5 μL of solvent was added to the blank groups. 100 ng of CDK9/CyclinT in 20 μL water was added to the test and positive control groups, while 20 μL of 1× kinase assay buffer was added to the blank groups. The reaction mixtures were incubated at 30° C. for 45 minutes, and 50 μL of Kinase-Glo® Max was added to each well and the plates were shielded from light and incubated for 15 minutes at room temperature. Luminescence was measured on a microplate reader and IC50 values were calculated using Prism 9 software.
# HepG2 cells = test: Cancer cell viability assay (CellTiter-Glo 2.0), HepG2; format: cell-based, Human; settings: HepG2, 72 hours compound treatment
# Experimental: (§1) Human liver cancer cell lines HepG2, Hep3B, Huh7, and SK-HEP-1 cells were rinsed and trypsinized with 0.25% trypsin (Corning #25-053-CI) in an incubator at 37° C. until detached. The cells were resuspended and seeded in 96-well plates to a density of 5,000 cells per well. Following cell adhesion, compounds were added to a final concentration of 2× dilution. 72 hours following compound treatment, CellTiter-Glo® 2.0 was added to the well in a 2:1 ratio of media/CellTiter-Glo® 2.0. The plates were shielded from light, shaken for 2 minutes, and incubated for 10 minutes. Luminescence was measured on a microplate reader and EC50 values were calculated using Prism 9 software.
# Hep3B cells = test: Cancer cell viability assay (CellTiter-Glo 2.0), Hep3B; format: cell-based, Human; settings: 72 hours compound treatment
# Experimental: as §1
# SK-HEP-1 cells = test: Cancer cell viability assay (CellTiter-Glo 2.0), SK-HEP-1; format: cell-based, Human; settings: SK-HEP-1, 72 hours compound treatment
# Experimental: as §1
# Huh7 cells = test: Cancer cell viability assay (CellTiter-Glo 2.0), Huh7; format: cell-based, Human; settings: Huh7, 72 hours compound treatment
# Experimental: as §1
# [1] = Pharmacokinetic and tissue distribution study, liver versus blood in mice; format: in vivo; settings: CD-1 mice, single oral dose 5 mg/kg suspension, 2 hours; compared with NVP-2 (FIG. 1)
# Experimental: For mice experiments, the liver and blood pharmacokinetics of compounds were analyzed in CD-1 mice following a single oral administration dose of 5 mg/kg compound suspension.
# Liver and blood samples for determination of compound concentration were obtained at 2 hours following administration of compounds (n=3 for each compound). The ratios of compound concentrations in liver versus blood in CD-1 mice following a single oral administration dose of 5 mg/kg compound suspension are summarized in FIG. 1.
# [2] = Pharmacokinetic study, jugular vein versus portal vein blood in rats; format: in vivo, Sprague-Dawley (SD) rats; settings: SD rats, single oral dose 5 mg/kg suspension; compared with NVP-2 (FIG. 2)
# Experimental: For rat experiments, the pharmacokinetics of compounds in blood collected from jugular vein and portal vein were analyzed in Sprague-Dawley (SD) rats following a single oral administration dose of 5 mg/kg compound suspension. Blood samples for determination of compound concentration were obtained from jugular vein and portal vein at 0.25 h, 0.5 h, 1 h, 2 h, 4 h, 6 h, 8 h, and 24 h following administration of compounds (n=3 for each compound). Collected liver and blood samples were analyzed using an LC-MS/MS method to quantify compound concentrations. The ratios of compound concentrations in blood collected from jugular vein versus portal vein in Sprague-Dawley (SD) rats following a single oral administration dose of 5 mg/kg compound suspension are summarized in FIG. 2.
# [3] = Tolerability and safety assessment study (body weight change); format: in vivo; settings: BALB/c nude mice; compared with NVP-2 (FIG. 3)
# Experimental: Based on the body weight, BALB/c nude mice were randomly assigned to respective groups using a computer-generated randomization procedure. Body weights of all animals were measured daily to record weight changes (relative to day 1) of BALB/c nude mice treated with vehicle and compounds. For routine monitoring, all study animals were monitored for behavior such as mobility, food and water consumption, body weight, eye/hair matting and any other abnormal effect. Any mortality and/or abnormal clinical signs were recorded. The animals were euthanized when they lost significant body mass (emaciated, obvious body weight loss >20%).
# Chain of CDK9/CyclinT (P50750 whole entry): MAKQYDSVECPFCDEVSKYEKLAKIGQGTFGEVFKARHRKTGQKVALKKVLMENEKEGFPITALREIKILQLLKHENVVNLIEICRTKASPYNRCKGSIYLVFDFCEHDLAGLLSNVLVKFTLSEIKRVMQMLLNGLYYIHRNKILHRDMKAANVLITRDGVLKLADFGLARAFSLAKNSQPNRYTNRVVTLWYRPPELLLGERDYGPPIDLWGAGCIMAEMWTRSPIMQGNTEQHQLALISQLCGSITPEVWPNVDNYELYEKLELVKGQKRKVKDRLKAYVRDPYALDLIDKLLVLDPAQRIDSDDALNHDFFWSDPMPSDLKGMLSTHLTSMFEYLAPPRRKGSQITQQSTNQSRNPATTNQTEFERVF
# Chain of CDK9/CyclinT (O60563 whole entry partner): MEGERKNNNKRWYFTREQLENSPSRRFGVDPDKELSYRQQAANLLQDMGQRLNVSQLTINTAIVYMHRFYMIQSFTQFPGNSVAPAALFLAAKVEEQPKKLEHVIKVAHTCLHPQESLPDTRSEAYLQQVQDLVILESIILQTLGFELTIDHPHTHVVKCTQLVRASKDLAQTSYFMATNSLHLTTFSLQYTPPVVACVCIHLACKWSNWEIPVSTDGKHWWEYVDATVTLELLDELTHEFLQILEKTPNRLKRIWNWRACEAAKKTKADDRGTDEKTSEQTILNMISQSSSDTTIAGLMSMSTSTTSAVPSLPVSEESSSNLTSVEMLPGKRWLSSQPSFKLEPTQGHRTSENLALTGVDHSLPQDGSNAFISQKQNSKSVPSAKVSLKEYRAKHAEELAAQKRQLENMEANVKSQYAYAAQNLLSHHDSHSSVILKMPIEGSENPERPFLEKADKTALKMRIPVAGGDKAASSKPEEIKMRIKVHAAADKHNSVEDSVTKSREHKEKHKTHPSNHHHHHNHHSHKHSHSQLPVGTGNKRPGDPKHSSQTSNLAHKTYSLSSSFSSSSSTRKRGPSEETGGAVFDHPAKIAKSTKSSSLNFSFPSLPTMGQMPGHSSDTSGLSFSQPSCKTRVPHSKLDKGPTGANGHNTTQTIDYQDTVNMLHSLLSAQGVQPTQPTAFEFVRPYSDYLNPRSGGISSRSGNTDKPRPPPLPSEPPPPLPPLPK
structure (smiles),measurement,setting,value
"C[C@@H](COCC(=O)O)NC1CCC(Nc2cc(-c3cccc(NCC4(C#N)CCOCC4)n3)c(Cl)cn2)CC1 (stereo partly drawn) [Compound 9, 2-((S)-2-(((1R,4S)-4-((5′-chloro-6-(((4-cyanotetrahydro-2H-pyran-4-yl)methyl)amino)-[2,4′-bipyridin]-2′-yl)amino)cyclohexyl)amino)propoxy)acetic acid]",IC50,CDK9/CyclinT,5 to 10 nM
same,EC50,HepG2 cells,> 1000 nM
same,EC50,Hep3B cells,> 1000 nM
same,EC50,SK-HEP-1 cells,> 1000 nM
same,EC50,Huh7 cells,> 1000 nM
"C[C@H](COCc1nnn(C)n1)N[C@H]1CC[C@H](Nc2cc(-c3cccc(NCC4(C#N)CCOCC4)n3)c(Cl)cn2)CC1 [Compound 33, 4-(((5′-chloro-2′-(((1R,4r)-4-(((R)-1-((2-methyl-2H-tetrazol-5-yl)methoxy)propan-2-yl)amino)cyclohexyl)amino)-[2,4′-bipyridin]-6-yl)amino)methyl)tetrahydro-2H-pyran-4-carbonitrile]",IC50,CDK9/CyclinT,5 to 10 nM
same,EC50,HepG2 cells,< 100 nM
same,EC50,Hep3B cells,100 to 500 nM
same,ratio of compound concentrations in liver versus blood,[1],higher liver/blood ratios than NVP-2
"C[C@@H](COCc1nn[nH]n1)NC1CCC(Nc2cc(-c3cccc(NCC4(C#N)CCOCC4)n3)c(Cl)cn2)CC1 (stereo partly drawn) [Compound 3, 4-(((2′-(((1S,4R)-4-(((S)-1-((2H-tetrazol-5-yl)methoxy)propan-2-yl)amino)cyclohexyl)amino)-5′-chloro-[2,4′-bipyridin]-6-yl)amino)methyl)tetrahydro-2H-pyran-4-carbonitrile]",IC50,CDK9/CyclinT,> 10 nM
same,EC50,HepG2 cells,> 1000 nM
same,EC50,SK-HEP-1 cells,> 1000 nM
same,EC50,Huh7 cells,> 1000 nM
CCOC(=O)COC[C@H](C)NC1CCC(Nc2cc(-c3cccc(NCC4(C#N)CCOCC4)n3)c(Cl)cn2)CC1 (stereo partly shown) [Compound 6],IC50,CDK9/CyclinT,< 2.5 nM
same,ratio of compound concentrations in blood from jugular vein versus portal vein (liver efflux/influx ratio),[2],lower liver efflux/influx ratio than NVP-2
same,EC50,HepG2 cells,500 to 1000 nM
same,EC50,Hep3B cells,100 to 500 nM
same,EC50,SK-HEP-1 cells,< 100 nM
same,EC50,Huh7 cells,< 100 nM
"C[C@H](COCC(=O)OC(C)(C)C)N[C@H]1CC[C@H](Nc2cc(-c3cccc(NCC4(C#N)CCOCC4)n3)c(Cl)cn2)CC1 [Compound 18, tert-butyl 2-((R)-2-(((1r,4R)-4-((5′-chloro-6-(((4-cyanotetrahydro-2H-pyran-4-yl)methyl)amino)-[2,4′-bipyridin]-2′-yl)amino)cyclohexyl)amino)propoxy)acetate]",IC50,CDK9/CyclinT,> 10 nM
same,ratio of compound concentrations in blood from jugular vein versus portal vein (liver efflux/influx ratio),[2],lower liver efflux/influx ratio than NVP-2
same,EC50,HepG2 cells,< 100 nM
same,toxicity (mean weight changes relative to day 1),[3],lower toxicity than NVP-2
same,EC50,Hep3B cells,< 100 nM
same,EC50,SK-HEP-1 cells,< 100 nM
same,ratio of compound concentrations in liver versus blood,[1],higher liver/blood ratios than NVP-2
same,EC50,Huh7 cells,< 100 nM
"C[C@H](COCCNS(=O)(=O)C(F)(F)F)NC1CCC(Nc2cc(-c3cccc(NCC4(C#N)CCOCC4)n3)c(Cl)cn2)CC1 (mixture of isomers) [Compound 40, N-(2-(2-(((1r,4r)-4-((5′-chloro-6-(((4-cyanotetrahydro-2H-pyran-4-yl)methyl)amino)-[2,4′-bipyridin]-2′-yl)amino)cyclohexyl)amino)propoxy)ethyl)-1,1,1-trifluoromethanesulfonamide]",IC50,CDK9/CyclinT,2.5 to 5 nM
same,EC50,HepG2 cells,< 100 nM
same,EC50,Hep3B cells,100 to 500 nM
same,ratio of compound concentrations in liver versus blood,[1],higher liver/blood ratios than NVP-2
"C[C@H](COCC(=O)O)NC1CCC(Nc2cc(-c3cccc(NCC4(C#N)CCOCC4)n3)c(Cl)cn2)CC1 (stereo partly drawn) [Compound 8, 2-((R)-2-(((1R,4R)-4-((5′-chloro-6-(((4-cyanotetrahydro-2H-pyran-4-yl)methyl)amino)-[2,4′-bipyridin]-2′-yl)amino)cyclohexyl)amino)propoxy)acetic acid]",IC50,CDK9/CyclinT,2.5 to 5 nM
same,EC50,HepG2 cells,> 1000 nM
same,EC50,SK-HEP-1 cells,> 1000 nM
same,EC50,Huh7 cells,> 1000 nM
"C[C@H](COCc1nn[nH]n1)N[C@H]1CC[C@H](Nc2cc(-c3cccc(NCC4(C#N)CCOCC4)n3)c(Cl)cn2)CC1 [Compound 2, 4-(((2′-(((1R,4R)-4-(((R)-1-((2H-tetrazol-5-yl)methoxy)propan-2-yl)amino)cyclohexyl)amino)-5′-chloro-[2,4′-bipyridin]-6-yl)amino)methyl)tetrahydro-2H-pyran-4-carbonitrile]",IC50,CDK9/CyclinT,> 10 nM
same,EC50,HepG2 cells,> 1000 nM
same,EC50,Hep3B cells,> 1000 nM
same,EC50,SK-HEP-1 cells,> 1000 nM
same,EC50,Huh7 cells,500 to 1000 nM
